Results: ChEMBL document CHEMBL5303304, “EUbOPEN Chemogenomics Library - IncuCyte” (2023)

What was measured:
Assay type in all cases: toxicity, cell-based
HEK-293T = experiment: Incucyte cell viability with HEK293T; details: human, 10 µM, compound concentration 10 uM
Fibroblast = experiment: Incucyte cell viability with human fibroblast; details: 10 µM, compound concentration 10 uM
U2OS = experiment: Incucyte cell viability with U2OS; details: human, 10 µM, compound concentration 10 uM
Note: unitless GR value; below 1 slowed growth and below 0 cell loss.

| Structure (SMILES) | Growth Rate (HEK-293T; 6 h, replicate number 1) | Growth Rate (HEK-293T; 6 h, replicate number 2) | Growth Rate (HEK-293T; 12 h, replicate number 1) | Growth Rate (HEK-293T; 12 h, replicate number 2) | Growth Rate (HEK-293T; 18 h, replicate number 1) | Growth Rate (HEK-293T; 18 h, replicate number 2) | Growth Rate (HEK-293T; 24 h, replicate number 1) | Growth Rate (HEK-293T; 24 h, replicate number 2) | Growth Rate (Fibroblast; 6 h, replicate number 2) | Growth Rate (Fibroblast; 12 h, replicate number 1) | Growth Rate (Fibroblast; 12 h, replicate number 2) | Growth Rate (Fibroblast; 18 h, replicate number 1) | Growth Rate (Fibroblast; 18 h, replicate number 2) | Growth Rate (Fibroblast; 24 h, replicate number 2) | Growth Rate (U2OS; 0 h, replicate number 1) | Growth Rate (U2OS; 6 h, replicate number 2) | Growth Rate (U2OS; 12 h, replicate number 1) | Growth Rate (U2OS; 12 h, replicate number 2) | Growth Rate (U2OS; 18 h, replicate number 2) | Growth Rate (U2OS; 24 h, replicate number 2) | also measured |
| --- | --- | --- | --- | --- | --- | --- | --- | --- | --- | --- | --- | --- | --- | --- | --- | --- | --- | --- | --- | --- | --- |
| Cl.O=C(NCCN1CCC2(CC1)C(=O)NCN2c1cccc(F)c1)c1ccc2ccccc2c1 | -0.37 | -0.93 | 0.06 | -0.68 | 0.22 | -0.32 | 0.34 | -0.14 | -0.05 | -0.27 | -0.26 | -0.19 | -0.07 | -0.14 | -0.95 | 0.73 | 0.24 | 0.25 | 0.23 | 0.17 | Growth Rate (Fibroblast; 0 h, replicate number 1): -1; Growth Rate (Fibroblast; 6 h, replicate number 1): -0.03; Growth Rate (Fibroblast; 24 h, replicate number 1): -0.27; Growth Rate (U2OS; 0 h, replicate number 2): -0.98; Growth Rate (U2OS; 6 h, replicate number 1): 0.46; Growth Rate (U2OS; 18 h, replicate number 1): -0.13; Growth Rate (U2OS; 24 h, replicate number 1): -0.24 |
| Cc1ccc(S(=O)(=O)Nc2ccc(-n3nc(C(F)(F)F)cc3C(F)(F)F)cc2)cc1 | 0.36 | 0.63 | 0.58 | 0.66 | 0.47 | 0.81 | 0.62 | 0.92 | -1 | -1 | 0.78 | 0.74 | – | 0.83 | – | 0.69 | 0.91 | 0.8 | 0.83 | 0.72 | Growth Rate (Fibroblast; 6 h, replicate number 1): -0.21; Growth Rate (U2OS; 6 h, replicate number 1): 0.01; Growth Rate (U2OS; 18 h, replicate number 1): 0.74; Growth Rate (U2OS; 24 h, replicate number 1): 0.84 |
| CC(C)[C@H](C(=O)Nc1ccc(C(=O)NO)cc1)c1ccccc1 [AR-42] | – | – | – | – | – | 0.59 | 0.89 | 0.37 | 0.66 | -1 | 0.61 | -0.41 | 0.42 | 0.61 | – | 0.73 | 0.83 | 0.96 | 0.44 | 0.11 | Growth Rate (HEK-293T; 0 h, replicate number 1): -0.15; Growth Rate (HEK-293T; 0 h, replicate number 2): 0.49; Growth Rate (Fibroblast; 0 h, replicate number 1): 0.71; Growth Rate (Fibroblast; 0 h, replicate number 2): 0.62; Growth Rate (Fibroblast; 24 h, replicate number 1): 0.78; Growth Rate (U2OS; 18 h, replicate number 1): 0.46; Growth Rate (U2OS; 24 h, replicate number 1): 0 |
| CCOC(=O)N1CCC(c2cc(O)n3nc(C)c(-c4ccc(F)cc4)c3n2)CC1 | – | 0.98 | 0.62 | – | 0.78 | – | 0.88 | – | -0.67 | – | 0.8 | 0.13 | 0.85 | 0.92 | 0.61 | 0.99 | 0.93 | – | – | – | Growth Rate (U2OS; 0 h, replicate number 2): 0.63; Growth Rate (U2OS; 6 h, replicate number 1): 0.54; Growth Rate (U2OS; 18 h, replicate number 1): 0.98 |
| Cc1onc(O)c1CC(N)C(=O)O [(R,S)-AMPA] | 0.47 | 0.09 | 0.21 | 0.69 | 0.78 | 0.64 | 0.74 | – | -0.99 | -1 | 0.59 | – | – | – | -0.22 | 0.78 | – | 0.82 | 0.94 | 0.94 | Growth Rate (HEK-293T; 0 h, replicate number 2): 0.65; Growth Rate (Fibroblast; 0 h, replicate number 1): -0.2; Growth Rate (U2OS; 0 h, replicate number 2): -0.98 |
| c1cc(-c2cnn3cc(-c4ccc(N5CCNCC5)cc4)cnc23)c2cccnc2c1 | -0.69 | -0.96 | -0.55 | -0.77 | -0.44 | -0.58 | -0.34 | -0.45 | -1 | -1 | -0.91 | -0.44 | -0.74 | -0.55 | -0.73 | -0.62 | -0.69 | -0.61 | -0.48 | -0.43 | Growth Rate (HEK-293T; 0 h, replicate number 1): -0.92; Growth Rate (HEK-293T; 0 h, replicate number 2): 0.43; Growth Rate (Fibroblast; 0 h, replicate number 2): -0.9; Growth Rate (Fibroblast; 6 h, replicate number 1): -0.19; Growth Rate (Fibroblast; 24 h, replicate number 1): 0.25; Growth Rate (U2OS; 6 h, replicate number 1): -0.87; Growth Rate (U2OS; 18 h, replicate number 1): -0.57; Growth Rate (U2OS; 24 h, replicate number 1): -0.49 |
| C[C@@H](NC(=O)Cc1ccc(C2CC2)cc1)c1ccc(OCC(F)(F)F)cn1 | 0.39 | 0.17 | – | 0.64 | – | 0.63 | – | 0.68 | -0.99 | -1 | 0.67 | -0.27 | 0.93 | 0.89 | -0.06 | 0.67 | – | 0.53 | 0.79 | 0.87 | Growth Rate (Fibroblast; 0 h, replicate number 1): -0.4; Growth Rate (Fibroblast; 6 h, replicate number 1): 0.85; Growth Rate (Fibroblast; 24 h, replicate number 1): 0.8; Growth Rate (U2OS; 0 h, replicate number 2): -0.85 |
